The results in this text go back to patent publication US10538555B2, “Macrocyclic inhibitors of the PD-1/PD-L1 and CD80(B7-1)/PD-L1 protein/protein interactions” (BRISTOL-MYERS SQUIBB COMPANY, priority 2014, dated 2020).

The experiment has as its target T1, Human PD-L1/PD-1 (Homo sapiens, UniProt Q9NZQ7).
T1 construct: TVMV protease cleavage site (C); made in house; host or cells: HEK293T cells
Description: HTRF Human PD-L1/PD-1 binding assay (PD-1-Ig/PD-L1-His). The note with it: PD-L1-His 10 nM, PD-1-Ig 20 nM; class symbol; read-out: HTRF Human PD-L1/PD-1 Binding Assay IC50 Range. The method, boiled down: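 Truncated Fc-fused human PD-1 (aa 25-167) at 20 nM and His-tagged PD-L1 (aa 18-239) at 10 nM final are used, with peptides preincubated 15 min with PD-L1. Detection uses europium-cryptate anti-Ig and APC anti-His antibodies; 665/620 nm ratio.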
(Time-resolved FRET reads energy transfer from a long-lived donor to a nearby acceptor.)

*1 amine or outer side, *2 acyl side, *3 side chain or, on linkers, in order; H or OH if unused. Where a SMILES comes first, the peptide text is derived from it. Bridges are numbered along the chain shown (N, C = ends). [ ]: non-standard residue; d: D form. ξ: configuration not given here. Trp(1-CH2COOH) = N[C@@H](Cc1cn(CC(=O)O)c2ccccc12)C(=O)O; Trp(βS-Me) = C[C@@H](c1c[nH]c2ccccc12)[C@H](N)C(=O)O; Phe(3,4,5-F3) = N[C@@H](Cc1cc(F)c(F)c(F)c1)C(=O)O; d(cisHyp) = O=C(O)[C@H]1C[C@@H](O)CN1; Hyp = O=C(O)[C@@H]1C[C@@H](O)CN1; NMeF = CN[C@@H](Cc1ccccc1)C(=O)O; X1 = O=C([C@H]1COCCN1[*:1])[*:2]; dHyp = O=C(O)[C@H]1C[C@H](O)CN1; NMehSer = CN[C@@H](CCO)C(=O)O; NMeNle = CCCC[C@H](NC)C(=O)O; dPip = O=C(O)[C@H]1CCCCN1; NMeA = CN[C@@H](C)C(=O)O; Orn = NCCC[C@H](N)C(=O)O; Dab = NCC[C@H](N)C(=O)O; Dap = NC[C@H](N)C(=O)O; ξC = NC(CS)C(=O)O

T1 sequence (Q9NZQ7 with tags, fused parts or gaps): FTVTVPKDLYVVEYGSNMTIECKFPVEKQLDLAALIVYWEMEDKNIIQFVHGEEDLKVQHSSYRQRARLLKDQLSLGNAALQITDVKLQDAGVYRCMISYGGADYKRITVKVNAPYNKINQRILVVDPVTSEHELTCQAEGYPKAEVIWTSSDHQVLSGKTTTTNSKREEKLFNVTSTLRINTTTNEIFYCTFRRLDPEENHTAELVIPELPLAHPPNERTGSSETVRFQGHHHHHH

For `CCCC[C@H]1C(=O)N(C)[C@@H](CCCC)C(=O)N[C@@H](CCCNC(=N)N)C(=O)N[C@H](C(=O)NCC(N)=O)CSCC(=O)N[C@@H](Cc2ccc(OC)cc2)C(=O)N(C)[C@@H](C)C(=O)N[C@@H](CC(N)=O)C(=O)N2CCC[C@H]2C(=O)N[C@@H](Cc2cnc[nH]2)C(=O)N[C@@H](CCC(=O)O)C(=O)N2C[C@H](O)C[C@H]2C(=O)N[C@@H](Cc2c[nH]c3ccccc23)C(=O)N[C@@H](CO)C(=O)N[C@@H](Cc2c[nH]c3ccccc23)C(=O)N1C` [Example 7086] ({CH2CO}-Y(Me)[NMeA]NPHE[Hyp]WSW[NMeNle][NMeNle]RCG-NH2; thioether N-14), the IC50 lay within 1 to 9.9 nM.
Then `CCCC[C@H]1C(=O)N(C)[C@@H](CCCC)C(=O)NCC(=O)N[C@H](C(=O)NCC(N)=O)CSCC(=O)N[C@@H](Cc2ccc(O)cc2)C(=O)N(C)[C@@H](C)C(=O)N[C@@H](CC(N)=O)C(=O)N2CCC[C@H]2C(=O)NCC(=O)N[C@@H](CCC(N)=O)C(=O)N2C[C@H](O)C[C@H]2C(=O)N[C@@H](Cc2c[nH]c3ccccc23)C(=O)NCC(=O)N[C@@H](Cc2c[nH]c3ccccc23)C(=O)N1C` [Example 5219] ({CH2CO}-Y[NMeA]NPGQ[Hyp]WGW[NMeNle][NMeNle]GCG-NH2; thioether N-14), with 1 to 9.9 nM; and `CCCC[C@H]1C(=O)N(C)[C@@H](CCCC)C(=O)N[C@@H](CC(C)C)C(=O)N[C@H](C(=O)NCC(N)=O)CSCC(=O)N[C@@H](Cc2ccc(OC)cc2)C(=O)N(C)[C@@H](C)C(=O)N[C@@H](CC(=O)O)C(=O)N2CCC[C@H]2C(=O)N[C@@H](Cc2cnc[nH]2)C(=O)N[C@@H](CCCCN)C(=O)N2C[C@H](O)C[C@@H]2C(=O)N[C@@H](Cc2c[nH]c3ccccc23)C(=O)N[C@@H](CCCCN)C(=O)N[C@@H](Cc2cn(CC(=O)O)c3ccccc23)C(=O)N1C` [Example 7154] ({CH2CO}-Y(Me)[NMeA]DPHK[d(cisHyp)]WK[Trp(1-CH2COOH)][NMeNle][NMeNle]LCG-NH2; thioether N-14), with 10 to 99.9 nM; and `CCCC[C@H]1C(=O)N(C)[C@@H](CCCC)C(=O)N[C@@H](CCC(=O)O)C(=O)N[C@H](C(=O)NCC(N)=O)CSCC(=O)N[C@@H](Cc2ccc(OC)cc2)C(=O)N(C)[C@@H](C)C(=O)N[C@@H](CCN)C(=O)N2CCC[C@H]2C(=O)N[C@@H](Cc2cnc[nH]2)C(=O)N[C@@H](CCC(=O)O)C(=O)N2C[C@H](O)C[C@H]2C(=O)N[C@@H](Cc2c[nH]c3ccccc23)C(=O)N[C@@H](CCN)C(=O)N[C@@H](Cc2c[nH]c3ccccc23)C(=O)N1C` [Example 7111] ({CH2CO}-Y(Me)[NMeA][Dab]PHE[Hyp]W[Dab]W[NMeNle][NMeNle]ECG-NH2; thioether N-14), with 1 to 9.9 nM.
The result for `CCCC[C@H]1C(=O)N2C[C@H](O)C[C@@H]2C(=O)N[C@@H](CC(=O)O)C(=O)N[C@@H](C(C)C)C(=O)N(C)[C@@H](Cc2ccccc2)C(=O)N[C@@H](CCC(N)=O)C(=O)N2C[C@H](O)C[C@@H]2C(=O)N[C@@H](Cc2c[nH]c3ccccc23)C(=O)N[C@@H](Cc2ccc(O)cc2)C(=O)N[C@@H](CCC(=O)O)C(=O)N[C@H](C(=O)NCC(N)=O)CSCC(=O)N[C@@H](Cc2cc(F)c(F)c(F)c2)C(=O)N(C)[C@@H](Cc2ccccc2)C(=O)N1C` [Example 9357] ({CH2CO}-[Phe(3,4,5-F3)][NMeF][NMeNle][d(cisHyp)]DV[NMeF]Q[d(cisHyp)]WYECG-NH2; thioether N-13) reads 10 to 99.9 nM; that for `CCCC[C@H]1C(=O)N[C@@H](CC(N)=O)C(=O)N2CCC[C@H]2C(=O)N[C@@H](Cc2c[nH]cn2)C(=O)N[C@@H](CCC(=O)O)C(=O)N2C[C@H](O)C[C@H]2C(=O)N[C@@H]([C@@H](C)c2c[nH]c3ccccc23)C(=O)N[C@@H](CCN)C(=O)N[C@@H](Cc2c[nH]c3ccccc23)C(=O)N(C)[C@@H](C)C(=O)N(C)[C@@H](C)C(=O)N[C@@H](CC(C)C)C(=O)N[C@H](C(=O)NCC(N)=O)CSCC(=O)N[C@@H](Cc2ccc(O)cc2)C(=O)N1C` [Example 10540] ({CH2CO}-Y[NMeNle]NPHE[Hyp][Trp(βS-Me)][Dab]W[NMeA][NMeA]LCG-NH2; thioether N-14), 1000 to 10000 nM; that for `CCCC[C@H]1C(=O)N2C[C@@H](O)C[C@@H]2C(=O)N[C@@H](CC(=O)O)C(=O)N[C@@H](C(C)C)C(=O)N(C)[C@@H](Cc2ccccc2)C(=O)N[C@@H](CCC(=O)O)C(=O)N2CCCC[C@@H]2C(=O)N[C@@H](Cc2cn(CC(=O)O)c3ccccc23)C(=O)N[C@@H](Cc2ccc(O)cc2)C(=O)N[C@@H](CCN)C(=O)N[C@H](C(=O)NCC(N)=O)CSCC(=O)N[C@@H](Cc2cc(F)c(F)c(F)c2)C(=O)N(C)[C@@H](Cc2ccccc2)C(=O)N1C` [Example 10585] ({CH2CO}-[Phe(3,4,5-F3)][NMeF][NMeNle][dHyp]DV[NMeF]E[dPip][Trp(1-CH2COOH)]Y[Dab]CG-NH2; thioether N-13), 1 to 9.9 nM.
Then `CCCC[C@H]1C(=O)N(C)[C@@H](CCCC)C(=O)N[C@@H](CCC(=O)O)C(=O)N[C@H](C(=O)NCC(N)=O)CSCC(=O)N[C@@H](Cc2ccc(OC)cc2)C(=O)N(C)[C@@H](C)C(=O)N[C@@H](CC(=O)O)C(=O)N2CCC[C@H]2C(=O)N[C@@H](CN)C(=O)N[C@@H](CCC(=O)O)C(=O)N2C[C@H](O)C[C@H]2C(=O)N[C@@H](Cc2c[nH]c3ccccc23)C(=O)N[C@@H](CCN)C(=O)N[C@@H](Cc2c[nH]c3ccccc23)C(=O)N1C` [Example 7113] ({CH2CO}-Y(Me)[NMeA]DP[Dap]E[Hyp]W[Dab]W[NMeNle][NMeNle]ECG-NH2; thioether N-14), with 1 to 9.9 nM; and `COCC[C@H]1C(=O)N2C[C@@H](O)C[C@@H]2C(=O)N[C@@H](CC(=O)O)C(=O)N[C@@H](C(C)C)C(=O)N(C)[C@@H](Cc2ccccc2)C(=O)N[C@@H](CCC(=O)O)C(=O)N2CCOC[C@@H]2C(=O)N[C@@H](Cc2c[nH]c3ccccc23)C(=O)N[C@@H](Cc2ccc(O)cc2)C(=O)N[C@@H](CCCN)C(=O)N[C@H](C(=O)NCC(N)=O)CSCC(=O)N[C@@H](Cc2cc(F)c(F)c(F)c2)C(=O)N(C)[C@@H](Cc2ccccc2)C(=O)N1C` [Example 9268] ({CH2CO}-[Phe(3,4,5-F3)][NMeF][NMehSer](Me)[dHyp]DV[NMeF]E[X1]WY[Orn]CG-NH2; thioether N-13), with 1 to 9.9 nM.
Regarding `CCCC[C@H]1C(=O)N2C[C@H](O)C[C@@H]2C(=O)N[C@@H](CC(=O)O)C(=O)N[C@@H](C(C)C)C(=O)N(C)[C@@H](Cc2ccccc2)C(=O)N[C@@H](CCC(=O)O)C(=O)N2C[C@H](O)C[C@@H]2C(=O)N[C@@H](Cc2c[nH]c3ccccc23)C(=O)N[C@@H](Cc2ccc(O)cc2)C(=O)N[C@@H](CCN)C(=O)N[C@H](C(=O)NCC(N)=O)CSCC(=O)N[C@@H](Cc2cc(F)c(F)c(F)c2)C(=O)N(C)[C@@H](Cc2ccccc2)C(=O)N1C` [Example 9333] ({CH2CO}-[Phe(3,4,5-F3)][NMeF][NMeNle][d(cisHyp)]DV[NMeF]E[d(cisHyp)]WY[Dab]CG-NH2; thioether N-13), the IC50 lay in the range of 10 to 99.9 nM.
The result for `CCCC[C@H]1C(=O)N(C)[C@@H](CCCC)C(=O)N[C@@H](CO)C(=O)NC(C(=O)NCC(N)=O)CSCC(=O)N[C@@H](Cc2ccc(O)cc2)C(=O)N(C)[C@@H](C)C(=O)N[C@@H](CC(N)=O)C(=O)N2CCC[C@H]2C(=O)N[C@@H](CC(N)=O)C(=O)N[C@@H](CC(C)C)C(=O)N2CCC[C@H]2C(=O)N[C@@H](Cc2c[nH]c3ccccc23)C(=O)N[C@@H](CO)C(=O)N[C@@H](Cc2c[nH]c3ccccc23)C(=O)N1C` (some centres unmarked) [Example 9140] ({CH2CO}-Y[NMeA]NPNLPWSW[NMeNle][NMeNle]S[ξC]G-NH2; thioether N-14) reads 1 to 9.9 nM.
